Measured values: patent publication US8129533B2, “Method for production of quinolone-containing lyophilized preparation” (Dalichi Sankyo Company, Limited, priority 2005, dated 2012)

Assays:
[1] = Reconstitution time of lyophilized preparation (with vs without annealing step); format: physicochemical; conditions: for reconstitution time of lyophilized preparation: lyophilized preparation (20 mg/mL, pH-adjusting agent only) prepared with an annealing step vs without, water for injection 10 mL, moderate shaking, FIG. 8
Source text: After a drug solution had been prepared in a manner similar to that described above, the solution was charged into a container and frozen under the conditions shown in Table 2, and then was lyophilized in a manner similar to that described above, followed by measurement of the time required for reconstitution (hereinafter the time may be referred to as a “reconstitution time”). The state observed about 30 seconds after injection of a liquid for reconstitution is shown in FIG. 2 (method without annealing step) or FIG. 3 (method with an annealing step).
Lyophilization was performed under varied annealing conditions (e.g., temperature and maintenance time for an annealing step) as shown in Table 3. […] Reconstitution time was measured through the following procedure: after completion of lyophilization, water for injection was added to a vial in an amount equal to that of the liquid charged into the vial, followed by moderate shaking, and the time required for complete dissolution of the content of the vial was measured.
Water for injection (10 mL) was added to a vial, followed by moderate shaking, and the time required for complete dissolution of the content of the vial was measured.

[2] = DSC of frozen product of compound-containing aqueous solution (glass transition temperature); format: physicochemical; conditions: frozen product of Table 1 formulation
Source text: The temperature of the annealing step may be determined on the basis of the glass transition temperature of the frozen product of the compound (1)-containing aqueous solution obtained through the freezing step. Specifically, the temperature of the frozen product is elevated to a level equal to or higher than the glass transition temperature thereof, and then maintained for a predetermined period of time. The glass transition temperature of the frozen product may be determined through, for example, DSC of the frozen product, and this DSC may be performed according to a generally employed method. The glass transition temperature of frozen products is varied in accordance with, for example, the compositional proportions of ingredients of starting solutions for the products. Therefore, different frozen products are subjected to DSC for determination of the glass transition temperature thereof.
For example, in the DSC chart of the frozen product containing compound (I) and pH-adjusting agents having a formulation shown in Table 1, the peak corresponding to the glass transition temperature of the frozen product rises at about −14.0° C. (FIG. 5). […] Therefore, when the annealing step is performed at a temperature equal to or higher than this temperature, the annealing effect is expected to be attained.

[3] = test system: drug-resistant Gram-positive bacteria such as methicillin-resistant staphylococci, penicillin-resistant pneumococci, and vancomycin-resistant enterococci; conditions: cited from earlier work
drug-resistant bacteria = conditions: cited from earlier work

Structure (SMILES) | reconstitution time of lyophilized preparation [1] | also measured
COc1c(N2CC[C@@H](C3(N)CC3)C2)ccc2c(=O)c(C(=O)O)cn([C@@H]3C[C@@H]3F)c12 [compound (I), 7-[3-(R)-(1-aminocyclopropyl)pyrrolidin-1-yl]-1-[2-(S)-fluoro-1-(R)-cyclopropyl]-1,4-dihydro-8-methoxy-4-oxoquinoline-3-carboxylic acid] | – | reconstituting property of lyophilized cake ([1]; Table 1 formulation, frozen product maintained between glass transition temperature and a temperature at which it does not thaw): improved reconstituting property; temperature at which the glass transition peak starts (DSC) [2]: about −17 °C; antibacterial activity [3]: high antibacterial activity
C[C@H]1COc2c(N3CCN(C)CC3)c(F)cc3c(=O)c(C(=O)O)cn1c23 [levofloxacin, (−)-(S)-9-fluoro-2,3-dihydro-3-methyl-10-(4-methyl-1-piperazinyl)-7-oxo-7H-pyrido[1,2,3-de][1,4]benzoxazine-6-carboxylic acid hemihydrate] | reduced reconstitution time | –
COc1c(N2CC3(CC3)[C@](C)(N)C2)c(F)cc2c(=O)c(C(=O)O)cn([C@@H]3C[C@@H]3F)c12 [compound (II), (+)-7-[(7S)-7-amino-7-methyl-5-azaspiro[2.4]heptan-5-yl]-6-fluoro-1-[(1R,2S)-2-fluoro-1-cyclopropyl]-1,4-dihydro-8-methoxy-4-oxo-3-quinolinecarboxylic acid hemihydrate] | reduced reconstitution time | antibacterial activity (drug-resistant bacteria): excellent antibacterial activity
N[C@@H]1CN(c2c(F)cc3c(=O)c(C(=O)O)cn([C@@H]4C[C@@H]4F)c3c2Cl)CC12CC2 [sitafloxacin, (−)-7-[(7S)-7-amino-5-azaspiro[2.4]heptan-5-yl]-8-chloro-6-fluoro-1-[(1R,2S)-2-fluoro-1-cyclopropyl]-1,4-dihydro-4-oxo-3-quinolinecarboxylic acid sesquihydrate] | reduced reconstitution time | –
CC1COc2c(N3CCN(C)CC3)c(F)cc3c(=O)c(C(=O)O)cn1c23 (racemic) [ofloxacin, (±)-9-fluoro-2,3-dihydro-3-methyl-10-(4-methyl-1-piperazinyl)-7-oxo-7H-pyrido[1,2,3-de][1,4]benzoxazine-6-carboxylic acid] | reduced reconstitution time | –
